Data on 12 molecules can be found in PMC10126514, “The interaction of peptide inhibitors and Aβ protein: Binding mode analysis, inhibition of the formation of Aβ aggregates, and then exert neuroprotective effects” (Frontiers in Aging Neuroscience, 2023).

“Also recorded” adds a separate entry of the source. Residues, ends and D or L forms follow the SMILES beside them.

For data set [1], the system named is PC12 cells. The note with it: CCK-8, co-incubated with Aβ1–42 72 h.
Protocol: Rat adrenal pheochromocytoma (PC12) cells were donated by Zhengzhou University School of Basic Medicine (#CRL-1721; RRID: CVCL-0481) in DMEM containing 10% fetal bovine serum, 1% penicillin and 1% streptomycin, culture in a cell incubator with 5% CO2 and 37°C, and passage once every 3 days.
Add 10 μL of CCK-8 solution to each well and continue to incubate for 2 h. Add 10 μL of CCK-8 solution to each well and continue to incubate for 2 h. The wells with normal DMEM medium and cell solution were used as the control group. The wells with 100 μL DMEM medium and 10 μL CCK-8 solution but no cells were used as the blank control, and the absorbance was measured at 450 nm.
Data set [2] concerns the target T1, Aβ1–42 (Homo sapiens, UniProt P05067).
T1 construct: purchased GL Biochem Ltd. (Shanghai)
Kind of data set: SPR affinity of peptide and Aβ1–42. The note with it: for Binding phase of SPR kinetic curve / Dissociation phase of SPR kinetic curve / Binding ability ranking by KD: qualitative, SPR. It counts as binding. The protocol:
Surface Plasmon Resonance (SPR) is a sensitive surface analysis technique that detects changes in dielectric constant caused by molecules adsorbed on heavy metal films. In this study, the 1-(3-Dimethylaminopropyl)-3-ethylcarbodiimide hydrochloride (EDC) and N-Hydroxy succinimide (NHS) in the coupling kit were, respectively, dissolved in 1 mL of activation buffer, divided into 10 parts, 100 μL/part, and stored at −20°C for later use. Before the experiment, first install the CM5 chip in the machine and wash it with HBS-EP buffer 3 times. […] After the experiment is over, use the Evaluation software to analyze the results, and use Flow Cell2 to subtract the background signal of channel 1 as the experimental result. The 1:1 binding method is used for fitting calculation and analysis of affinity parameters: binding rate constant ka (1/Ms), dissociation rate constant kd (1/s) and equilibrium dissociation constant KD (M), KD = kd/ ka, the smaller the KD value, the stronger the affinity.
(In general: Surface plasmon resonance follows binding to a sensor surface in real time, without labels.)

The subject of data set [3] is PC12 cells. It is filed as cell-based, Rat. The protocol: Pipette the cultured cells in a cell culture flask repeatedly to make them evenly distributed. Use a pipete to pipete 10 μL of cell suspension and transfer to a cell counting plate for counting. Count under a microscope to calculate the number of living cells distributed in a large square composed of 16 squares on the cytometer. Cell density (pcs / mL) = (sum of cell count/4) × 10^4 Calculate the cell concentration, repeat counting 2–3 times for each sample (the value should not be too different each time, otherwise the operation should be repeated). If there are less than 5 cells in each large square, you need to re-centrifuge to adjust the cell concentration.
Use CCK-8 kit to detect cell viability, reflecting the cytotoxicity of peptide inhibitors themselves. The counted PC12 cells were plated at 100 μL/well (8 × 10^4 cells/well). After put the 96-well plate at 37°C for 12 h, discard the medium, add 100 μL of medium containing different concentrations of peptide inhibitors to each well, and continue to culture 24 h. […] The wells with DMEM medium solution containing no peptide inhibitors but containing cells were used as the control group.
Cell Viability(%)=ODadministration group−[…]ODcontrol group−ODblank group×100%

Data set [4] relates to Aβ1–42 aggregation. Kind of data set: ThT fluorescence, inhibition of Aβ1–42 aggregation. It is filed as biochemical, Human. The note with it: for ThT fluorescence intensity vs Aβ group: PBS, ex 440/em 480 nm. As to the method:
ThT is a chemical fluorescent dye. […] Based on this fluorescence phenomenon, ThT is used as a kind of fluorescent indicator to detect the degree of aggregation of Aβ.
Take about 10 μL of the sample, dilute it 20 times with ThT solution, and read the fluorescence intensity value with a microplate reader, 440 nm is the excitation wavelength, and 480 nm is the emission wavelength, and the bandwidth is 5 nm. […] The sample was repeated five times and the average value was taken.

Data set [5] deals with PC12 cells. The settings on record: cited from earlier work. An excerpt:
Abnormally precipitated Aβ in amyloid plaques becomes one of the hallmark proteins of brain nerve damage in AD patients, and promotes the deterioration of AD. The accumulation of Aβ protein is caused by the interaction between the hydrophobic center and the C-terminal molecule ([Kapadia et al., 2021]). At present, the development of anti-Aβ aggregation compounds is a promising approach in the treatment of AD, and many clinical trials are ongoing. […] However, these peptides have high specificity and low toxicity, which will make them candidate drugs for peptide inhibitors against Aβ aggregation ([Fosgerau and Hoffmann, 2015]). Peptides designed by computer simulation and applied to Alzheimer’s disease are becoming more and more popular and welcomed by researchers. At present, the peptide inhibitors of Aβ aggregation include LVFF, KLVFF, KLVFF modified peptide (QKL ...

In data set [6] the test system is Aβ1–42 oligomerization. The settings on record: ref Takahashi and Mihara, 2008, cited from earlier work. From the text: (§1) In recent years, through the emergence of peptides that inhibit the aggregation of Aβ, extensive research has been conducted on peptides for the treatment of Alzheimer’s disease. However, these peptides have high specificity and low toxicity, which will make them candidate drugs for peptide inhibitors against Aβ aggregation ([Fosgerau and Hoffmann, 2015]). Peptides designed by computer simulation and applied to Alzheimer’s disease are becoming more and more popular and welcomed by researchers. At present, the peptide inhibitors of Aβ aggregation include LVFF, KLVFF, KLVFF modified peptide (QKL ...

The subject of data set [7] is apoptosis caused by Aβ. The settings on record: ref Hadipour et al., 2020; cited from earlier work. From the text:
Abnormally precipitated Aβ in amyloid plaques becomes one of the hallmark proteins of brain nerve damage in AD patients, and promotes the deterioration of AD. The accumulation of Aβ protein is caused by the interaction between the hydrophobic center and the C-terminal molecule ([Kapadia et al., 2021]). At present, the development of anti-Aβ aggregation compounds is a promising approach in the treatment of AD, and many clinical trials are ongoing.

Data set [8] has as its system Aβ aggregation. The settings on record: cited from earlier work; for Aβ aggregation and toxicity: ref Cheng et al., 2012.
Text: as §1

[9] abbreviates: peptide 50 μM, Aβ1–42 25 μM, 37°C, 24 h, ThT.
Where [10] appears, read: peptide 50 μM, Aβ1–42 25 μM, 37°C, 24 h, n = 5 mean.

T1 sequence (P05067 672-713 limits assumed): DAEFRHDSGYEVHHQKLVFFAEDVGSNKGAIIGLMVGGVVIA

`CC(=O)N[C@@H](Cc1ccc(O)cc1)C(=O)N[C@H](C(=O)N[C@@H](CCCNC(=N)N)C(=O)N[C@@H](Cc1c[nH]cn1)C(=O)N[C@@H](CC(C)C)C(=O)N[C@@H](CCCCN)C(=O)N[C@@H](Cc1ccc(O)cc1)C(=O)N[C@H](C(=O)N[C@@H](CCCNC(=N)N)C(=O)N[C@@H](Cc1c[nH]cn1)C(=O)N[C@@H](CC(C)C)C(=O)N[C@@H](CCCCN)C(N)=O)C(C)C)C(C)C` [P21] (Ac-YVRHLKYVRHLK-NH2): the “Cell viability at ratios above 1:1 (1:2, 1:4)” value in data set [1] (after ratio 1:1, increasing P21 (1:2, 1:4)) is given as “cell viability continued to increase”. Besides, in data set [1] (ratio 1:4), the “Cell viability at ratio 1:4” value is on record as “reaching the maximum at 1:4, which was close to the normal level”. Besides, in data set [2], the Kd is 53.8 µM; the “Binding phase of SPR kinetic curve” value is “rises rapidly at the beginning, but slowly reaches saturation in the following time, and the binding rate is faster”; the “Dissociation phase of SPR kinetic curve” value is recorded as “dissociates relatively quickly”. In addition, in data set [3], the “Cell viability at 25 μM” value is listed as “significantly reduced at 25 μM (p < 0.05)” and the “Toxicity to PC12 cells at 50 μM” value is reported as “less toxic to PC12 cells at a concentration of 50 μM”. The “Inhibitory effect on formation of Aβ1–42 aggregates at ratio 1:1” value in data set [4] (incubated with Aβ1–42 at a ratio of 1:1, ThT, listed as YVRHLKYVRHLK) was “significant inhibitory effect on the formation of Aβ1–42 aggregates when incubated with Aβ1–42 at a ratio of 1:1 (p < 0.05)”. Moreover, in data set [4] (setting [9]), the “Inhibitory effect on Aβ aggregation” value is recorded as “strong inhibitory ability on Aβ aggregation; also recorded: good inhibitory effect on the protein aggregation of Aβ1–42”. Further, the “Inhibition of Aβ1–42 aggregation” value in data set [4] (peptide 50 μM, Aβ1–42 25 μM, 37°C, 24 h, ThT, n = 5 mean, Aβ alone = 100% fluorescence) turned out to be 100%. Besides, in data set [4] (setting [10]), the “ThT fluorescence intensity vs Aβ group” value was “significantly lower than that of the Aβ group (p < 0.05)”.
Turning to “pituitary adenylate cyclase activating polypeptide [PACAP]”, in data set [5] (ref Onoue et al., 2002), the “Aβ-induced cell death in PC12 cells” value is on record as “attenuates Aβ-induced cell death in PC12 cells by increasing cAMP” and the Caspase-3 result is recorded as “inactivation of apoptotic factor (caspase-3)”.
With `CC(=O)N[C@@H](Cc1ccc(O)cc1)C(=O)N[C@H](C(=O)N[C@@H](CCCNC(=N)N)C(=O)N[C@@H](Cc1c[nH]cn1)C(=O)N[C@@H](CC(=O)O)C(=O)N[C@@H](CC(C)C)C(=O)N[C@@H](Cc1ccc(O)cc1)C(=O)N[C@H](C(=O)N[C@@H](CCCNC(=N)N)C(=O)N[C@@H](Cc1c[nH]cn1)C(=O)N[C@@H](CC(=O)O)C(=O)N[C@@H](CC(C)C)C(N)=O)C(C)C)C(C)C` [P12] (Ac-YVRHDLYVRHDL-NH2), in data set [2], the Kd amounted to 0.327 µM; the “Binding ability ranking by KD” value is given as “the strongest”; the “Binding phase of SPR kinetic curve” value was “rises rapidly at the beginning of binding and reaches saturation in a short time”; the “Dissociation phase of SPR kinetic curve” value was “the curve drops rapidly and the dissociation is completed”. In addition, in data set [3], the “Cell viability at 6.25 μM” value was “significant effect on the viability of PC12 cells at 6.25 μM (p < 0.05)”. Moreover, the “Inhibitory effect on Aβ aggregation” value in data set [4] (setting [9]) was “no inhibitory effect on Aβ aggregation”. In data set [4] (setting [10]), the “ThT fluorescence intensity vs Aβ group” value is listed as “increased, but the difference is not statistically significant (p > 0.05)”.
Take `CC(C)=CCC[C@@H](C)[C@H]1CC[C@@]2(C)C3=C(CC[C@]12C)[C@@]1(C)CC[C@H](O)C(C)(C)[C@@H]1CC3` [lanosterol]: the “Aβ-induced cytotoxicity in PC12 cells” value in data set [5] (ref Zhou et al., 2019) is “reduce the Aβ-induced cytotoxicity in PC12 cells”.
For the molecule Ac-KQKLLLFLEE-NH2, in data set [6] (co-assembles with mature Aβ1–42 fibrils), the “Aβ1–42 oligomerization” value is on record as “effectively inhibit Aβ1–42 oligomerization”. For the same molecule, the Self-assembly result in data set [6] was “form amyloid fibrils”.
Take `CC(=O)N[C@@H](Cc1ccc(O)cc1)C(=O)N[C@H](C(=O)N[C@@H](CCCNC(=N)N)C(=O)N[C@@H](Cc1c[nH]cn1)C(=O)N[C@@H](CO)C(=O)N[C@H](C(=O)N[C@@H](Cc1ccc(O)cc1)C(=O)N[C@H](C(=O)N[C@@H](CCCNC(=N)N)C(=O)N[C@@H](Cc1c[nH]cn1)C(=O)N[C@@H](CO)C(=O)N[C@H](C(N)=O)C(C)C)C(C)C)C(C)C)C(C)C` [P11] (Ac-YVRHSVYVRHSV-NH2): in data set [2], the equilibrium dissociation constant (Kd) is 20.5 µM; the “Binding phase of SPR kinetic curve” value was “the curve rises steadily, and it takes a long time to reach saturation”; the “Dissociation phase of SPR kinetic curve” value is on record as “relatively slow in the dissociation phase”. For the same molecule, the “Cell viability at 3.125 μM” value in data set [3] is on record as “cell viability began to decrease significantly at low concentration (3.125 μM) of P11 (p < 0.05)”. For the same molecule, the “Inhibitory effect on Aβ aggregation” value in data set [4] (setting [9]) is “certain inhibitory ability on Aβ aggregation”. In addition, the “ThT fluorescence intensity vs Aβ group” value in data set [4] (setting [10]) is reported as “decreased, but the difference was not statistically significant (p > 0.05)”.
Regarding `CC(C)=CCC/C(C)=C/CC/C(C)=C/CC/C(C)=C/CC1=C(C)C(=O)c2ccccc2C1=O` [vitamin K2], in data set [7], the “Apoptosis caused by Aβ accumulation” value is listed as “significantly reduced” and the “Ratio of Bax/Bcl-2” value was “decreased”.
As for QKLVFF, the “Formation of Aβ fibers” value in data set [8] (ref Findeis et al., 1999) is on record as “inhibiting the formation of Aβ fibers”.
Take “KLVFFAE [amyloid β-sheet mimics ; KLVFFAE (Aβ16–22)]”: the “Aβ aggregation and toxicity” value in data set [8] was “antagonizing Aβ protein aggregation and reducing Aβ toxicity”.
For “H2N-KLVFF (4-I) -CONH2 [iodinated KLVFF]”, in data set [8] (10 μM peptide, 10 μM Aβ, 1:1, ref Khalili Samani and Mofid, 2020), the “Anti-aggregation activity vs other halogenated peptides” value is recorded as “show the best resistance compared to other halogenated peptides”.
For the molecule “LFFFAED [amyloid β-sheet mimics ; LFFFAED (Aβ17–23)]”, the “Aβ aggregation and toxicity” value in data set [8] was “antagonizing Aβ protein aggregation and reducing Aβ toxicity”.
For `CC(=O)N[C@@H](Cc1ccc(O)cc1)C(=O)N[C@H](C(=O)N[C@@H](CCCNC(=N)N)C(=O)N[C@@H](Cc1c[nH]cn1)C(=O)N[C@@H](Cc1c[nH]cn1)C(=O)N[C@@H](Cc1c[nH]cn1)C(=O)N[C@@H](Cc1ccc(O)cc1)C(=O)N[C@H](C(=O)N[C@@H](CCCNC(=N)N)C(=O)N[C@@H](Cc1c[nH]cn1)C(=O)N[C@@H](Cc1c[nH]cn1)C(=O)N[C@@H](Cc1c[nH]cn1)C(N)=O)C(C)C)C(C)C` [P9] (Ac-YVRHHHYVRHHH-NH2), in data set [2], the Kd turned out to be 14 µM; the “Binding ability ranking by KD” value is on record as “the weakest”; the “Binding phase of SPR kinetic curve” value was “the curve rises steadily, and it takes a long time to reach saturation”; the “Dissociation phase of SPR kinetic curve” value is “relatively slow in the dissociation phase”. Also, in data set [3], the “Cell viability at 6.25 μM” value is “began to decrease significantly (p < 0.05)”; the “Cell viability at 25, 50, 100 and 200 μM” value is “decreased significantly, with extremely significant differences (p < 0.01)”. In data set [4] (setting [9]), the “Inhibitory effect on Aβ aggregation” value is on record as “no inhibitory effect on Aβ aggregation”. In addition, the “ThT fluorescence intensity vs Aβ group” value in data set [4] (setting [10]) is “increased, but the difference is not statistically significant (p > 0.05)”.

The term Kd denotes a measure of binding affinity in units of concentration. Read a high Kd as lower affinity.
